Assays:
[1] = Body and organ weights after subcutaneous administration in beagle dogs (Example 8); assay type: in vivo; conditions: 30 mg/kg subcutaneous days 1, 3, 5, 8, 15, 22, 29, end of study
Experimental: (§1) There were 4 animals per group.
Body weights as well as kidney, spleen, liver (with gall bladder), mesenteric lymph node, heart, and thymus weights were measured at the end of the study. […] Ionis SMAD7 oligonucleotides that caused any changes in organ weights outside the expected range for antisense oligonucleotides were excluded from further studies.

dog SMAD7 mRNA = assay: Pharmacology: dog SMAD7 mRNA expression in liver, kidney, duodenum, ileum and colon after subcutaneous administration in beagle dogs (Example 8); assay type: in vivo; conditions: 30 mg/kg subcutaneous, necropsy, normalized to HPRT1
Experimental: as §1
The pharmacological activity of the Ionis oligonucleotides in dogs was assessed by measuring dog SMAD7 mRNA expression in liver, kidney, duodenum, ileum, and colon at necropsy. All the human ASOs used are complementary to dog SMAD7 mRNA.
Tissue samples from all dogs were analyzed for SMAD7 mRNA expression using the primer probe set RTS34649 (forward sequence […], designated SEQ ID NO: 2740; reverse sequence […], designated SEQ ID NO: 2741; probe sequence […], designated SEQ ID NO: 2742), which was normalized to mRNA levels of the housekeeping gene, HPRT1. One-way ANOVA with Dunnet's comparison test was used for statistical analysis.

[2] = Oligonucleotide concentration in tissues by LC-MS/MS after subcutaneous administration in beagle dogs (Example 8); assay type: in vivo; conditions: 30 mg/kg subcutaneous, 48 hours after the last dose
Experimental: as §1
Oligonucleotide concentrations of both ION 830025 and ION 798781 were detected in various tissues by LC-MS/MS analysis. The results are presented below, expressed as μg/g tissue. The data was collected 48 hours after the last dose.

human SMAD7 mRNA [3] = assay: Antisense inhibition of human SMAD7 mRNA expression in Hep3B cells by 3-10-3 cEt gapmers, 10,000 nM, electroporation (Example 2); assay type: cell-based; conditions: approximately 24 hours
In short: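 qRT-PCR (RTS5062) of SMAD7 mRNA, normalised to RIBOGREEN total RNA, gave percent inhibition relative to untreated controls. Hep3B cells at 20,000 per well received 10,000 nM oligonucleotide by electroporation, with ~24 h treatment.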

[4] = Oligonucleotide concentrations in tissues by LC-MS/MS after oral gavage in CD-1 mice (Example 7); assay type: in vivo; conditions: 500 mg/kg oral gavage once daily for 4 weeks, 48 hours after last dose
Experimental: Groups of 7-8 week old male CD-1 mice were given an oral gavage dose once daily for 4 weeks of 500 mg/kg of Ionis SMAD7 oligonucleotides. Each group contained 8 mice. One group of male CD-1 mice was administered saline by oral gavage daily.
Oligonucleotide concentrations were detected in various tissues by LC-MS/MS analysis. The greatest concentration was found in the kidney, followed by the colon.

human SMAD7 mRNA [5] = assay: Dose-dependent inhibition of human SMAD7 mRNA expression in A431 cells, oligonucleotide added without transfection (Example 5, Study 1); assay type: cell-based; conditions: approximately 48 hours; for IC50: SMAD7 mRNA
Experimental: The newly designed compounds disclosed herein are cEt-modified antisense oligonucleotides. […] The studies described below show a comparison of select cEt-modified gapmers and ION0736697/Mongersen.
A431 cells were plated in collagen I-coated 96-well plates in DMEM with […]. Immediately after plating, 0.08 μM, 0.25 μM, 0.74 μM, 2.22 μM, 6.67 μM, or 20.00 μM concentrations of antisense oligonucleotide were added. The plates were shaken briefly before incubating at 37° C. and 10% CO2. After a treatment period of approximately 48 hours, the cells were washed and lyzed and RNA on 384-well Pall plates with DNase I treatment. SMAD7 mRNA levels were measured by quantitative real-time PCR. Primer probe set RTS5062 was used to measure human SMAD7 mRNA levels. SMAD7 mRNA levels were adjusted according to total RNA content, as measured by RIBOGREEN®. Results are presented as percent inhibition of SMAD7 mRNA expression, relative to untreated control cells.
All Ionis oligonucleotides had greater potency than ION 736697/Mongersen.

[6] = SMAD7 mRNA, Hep3B cells, 10,000 nM antisense oligonucleotide, electroporation, primer probe set RTS5062, relative to untreated control cells
[7] = Hep3B cells, electroporation with 10,000 nM antisense oligonucleotide, SMAD7 mRNA by RT-PCR (RTS5062), relative to untreated control cells

Substance	Body weight [1]	Heart weight [1]	Kidney weight [1]	Liver weight [1]	Mesenteric LN weight [1]	Spleen weight [1]	Thymus weight [1]	% inhibition of SMAD7 mRNA expression (compared to control), Distal colon (dog SMAD7 mRNA)	% inhibition of SMAD7 mRNA expression (compared to control), Duodenum (dog SMAD7 mRNA)	% inhibition of SMAD7 mRNA expression (compared to control), Ileum (dog SMAD7 mRNA)	% inhibition of Smad7 mRNA expression (compared to control), Kidney (dog SMAD7 mRNA)	% inhibition of Smad7 mRNA expression (compared to control), Liver (dog SMAD7 mRNA)	% inhibition of SMAD7 mRNA expression (compared to control), Proximal colon (dog SMAD7 mRNA)	Full length oligonucleotide, Distal colon [2]	Full length oligonucleotide, Duodenum [2]	Full length oligonucleotide, Ileum [2]	Full length oligonucleotide, Kidney [2]	Full length oligonucleotide, Liver [2]	Full length oligonucleotide, Proximal colon [2]	Oligonucleotide concentration, Colon [4]	further results
790615 (CCAATGAGAATGCTTC; 3-10-3 cEt gapmer, further chemistry not given here) [compound 790615]	7372 g	63.6 g	44.1 g	253.7 g	10.2 g	32.3 g	9.9 g	31%	35%	0%	37%	9%	41%	17 µg/g	17 µg/g	18 µg/g	1156 µg/g	220 µg/g	17 µg/g	2.9 µg/g	% Inhibition (human SMAD7 mRNA [3]; Hep3B cells, electroporation with 10,000 nM antisense oligonucleotide, primer probe set RTS5062, relative to untreated control cells): 38%; % Inhibition (human SMAD7 mRNA [3]; [6]): 40%; Oligonucleotide concentration, Duodenum [4]: 0.9 µg/g; Oligonucleotide concentration, Ileum [4]: 1.6 µg/g; Oligonucleotide concentration, Kidney [4]: 23.6 µg/g; Oligonucleotide concentration, Liver [4]: 2.8 µg/g; % inhibition of SMAD7 mRNA expression (human SMAD7 mRNA [5]; 0.08 μM): 14%; % inhibition of SMAD7 mRNA expression (human SMAD7 mRNA [5]; 0.25 μM): 43%; % inhibition of SMAD7 mRNA expression (human SMAD7 mRNA [5]; 0.74 μM): 55%; % inhibition of SMAD7 mRNA expression (human SMAD7 mRNA [5]; 2.22 μM): 63%; % inhibition of SMAD7 mRNA expression (human SMAD7 mRNA [5]; 6.67 μM): 70%; % inhibition of SMAD7 mRNA expression (human SMAD7 mRNA [5]; 20.00 μM): 75%; IC50 (human SMAD7 mRNA [5]): 0.7 µM
798781 (CGTAAGATTCACAGCA; 3-10-3 cEt gapmer, further chemistry not given here) [compound 798781]	6661 g	53.4 g	40.0 g	242.9 g	7.8 g	26.4 g	6.0 g	34%	0%	0%	28%	0%	26%	68 µg/g	97 µg/g	177 µg/g	3300 µg/g	964 µg/g	73 µg/g	4.4 µg/g	% Inhibition (human SMAD7 mRNA [3]; [7]): 52%; % Inhibition (human SMAD7 mRNA [3]; [6]): 69%; Oligonucleotide concentration, Duodenum [4]: 0.7 µg/g; Oligonucleotide concentration, Ileum [4]: 2.9 µg/g; Oligonucleotide concentration, Kidney [4]: 45.2 µg/g; Oligonucleotide concentration, Liver [4]: 2.9 µg/g; % inhibition of SMAD7 mRNA expression (human SMAD7 mRNA [5]; 0.08 μM): 23%; % inhibition of SMAD7 mRNA expression (human SMAD7 mRNA [5]; 0.25 μM): 34%; % inhibition of SMAD7 mRNA expression (human SMAD7 mRNA [5]; 0.74 μM): 41%; % inhibition of SMAD7 mRNA expression (human SMAD7 mRNA [5]; 2.22 μM): 41%; % inhibition of SMAD7 mRNA expression (human SMAD7 mRNA [5]; 6.67 μM): 57%; % inhibition of SMAD7 mRNA expression (human SMAD7 mRNA [5]; 20.00 μM): 62%; IC50 (human SMAD7 mRNA [5]): 3.6 µM
829994 (GGAGGCAGGGCCGCGA; 3-10-3 cEt gapmer, further chemistry not given here) [compound 829994]	7335 g	57.9 g	39.1 g	250.0 g	9.0 g	22.8 g	6.3 g	29%	2%	32%	0%	0%	34%	7 µg/g	23 µg/g	12 µg/g	894 µg/g	335 µg/g	11 µg/g	5.7 µg/g	% Inhibition (human SMAD7 mRNA [3]; SMAD7 mRNA, Hep3B cells, electroporation with 10,000 nM antisense oligonucleotide, primer probe set RTS5062, relative to untreated control cells): 68%; Oligonucleotide concentration, Duodenum [4]: 0.8 µg/g; Oligonucleotide concentration, Ileum [4]: 4.0 µg/g; Oligonucleotide concentration, Kidney [4]: 9.8 µg/g; Oligonucleotide concentration, Liver [4]: 1.3 µg/g
830025 (antisense TTTGTAAATCGAAAGC; 3-10-3 cEt gapmer, further chemistry not given here) [compound 830025]	7403 g	60.5 g	40.3 g	250.3 g	10.9 g	28.9 g	8.3 g	3%	7%	9%	25%	0%	24%	49 µg/g	97 µg/g	41 µg/g	1470 µg/g	466 µg/g	31 µg/g	3.6 µg/g	% Inhibition (human SMAD7 mRNA [3]; [7]): 62%; Oligonucleotide concentration, Duodenum [4]: 0.7 µg/g; Oligonucleotide concentration, Ileum [4]: 1.9 µg/g; Oligonucleotide concentration, Kidney [4]: 21.5 µg/g; Oligonucleotide concentration, Liver [4]: 2.3 µg/g; % inhibition of SMAD7 mRNA expression (human SMAD7 mRNA [5]; 0.08 μM): 16%; % inhibition of SMAD7 mRNA expression (human SMAD7 mRNA [5]; 0.25 μM): 30%; % inhibition of SMAD7 mRNA expression (human SMAD7 mRNA [5]; 0.74 μM): 22%; % inhibition of SMAD7 mRNA expression (human SMAD7 mRNA [5]; 2.22 μM): 41%; % inhibition of SMAD7 mRNA expression (human SMAD7 mRNA [5]; 6.67 μM): 54%; % inhibition of SMAD7 mRNA expression (human SMAD7 mRNA [5]; 20.00 μM): 67%; IC50 (human SMAD7 mRNA [5]): 4.7 µM
